Measured values taken from patent publication US11413267B2, “Methods and compositions for inhibition of ATR and FANCD2 activation” (priority 2012, dated 2022).

Tests used:
[1] = system: HeLa cells; test: DNA homologous recombination repair assay (pHPRT-DRGFP / I-SceI); format: cell-based, human; settings: for GFP cell (%): chromosomal breaks generated by I-SceI endonuclease expression, 48 h
Excerpt: ATR function is also linked to DNA repair via its coupled targets (Sorensen C S, et al. Nat Cell Biol 2005). To examine the effect of benzopyran-4-one derivatives treatment on DNA repair, we performed a homologous recombination repair (HRR) assay in HeLa cells. DNA constructs of the recombination substrate pHPRT-DRGFP, in which the I-SceI site lies within 1 copy of 2 mutated tandem repeated GFP genes, and the I-SceI endonuclease expression vector pCBASceI, were originally constructed by Dr. M. Jasin (25). In brief, we generated a stable pHPRT-DRGFP construct in HeLa cells, and evaluated the chromosomal breaks generated by I-SceI endonuclease expression. Six hours after pCBASceI was delivered into the cells, complete medium with or without Protoapigenone (I-1) or compound II-1 was replaced onto the cells. Forty-eight hours after delivery, the efficiency of chromosomal HRR was obtained as the percentage of GFP-positive cells, which was assessed by flow cytometry.

[2] = system: ATR-dependent Chk1 phosphorylation; test: Immunoblot of DNA damage-induced Chk1 phosphorylation; format: cell-based, human
Excerpt: We hypothesized that genes with functions associated with DNA damage checkpoints and/or DNA repair might be targeted by benzopyran-4-one derivatives. To test this hypothesis, we assessed the effects of benzopyran-4-one derivatives on DDR induced by H2O2. […] In response to DNA double-strand breaks (DSBs), FANCD2 is known to be monoubiquitinated on K561 (FANCD2-Ub) in an ATR-dependent manner to stimulate repair (Andreassen P R, et al. Genes Dev 2004).
To elucidate the specificity of the benzopyran-4-one derivatives inhibition on ATR-mediated signaling, we compared the change between cells treated with benzopyran-4-one derivatives or the ATM-specific inhibitor KU55933 before the induction of DDR.
MDA-MB-231 (breast adenocarcinoma; ATCC HTB-26, BCRC 60425) and A549 (lung adenocarcinoma; ATCC CCL-185, BCRC 60074) human cell lines were purchased from Bioresource Collection and Research Center (BCRC, Hsinchu, Taiwan), and were authenticated by American Type Culture Collection (ATCC, Manassas, Va.). U2OS (osteosarcoma), HeLa (cervical adenocarcinoma), and HEK 293T (embryonic kidney cells) human cell lines were provided by Dr. Sheau-Yann Shieh (Institute of Molecular Biology, Academia Sinica, Taipei, Taiwan). Cells were maintained in Dulbecco's modified Eagle's medium (DMEM, Sigma-Aldrich) supplemented with 10% fetal bovine serum (FBS) (Gibco). […] For UV irradiation treatment, the cells were irradiated for 10 J/m^2 by a cross-linker (UVP) 1 h prior to analysis.
Cell lysate preparations, gel electrophoresis, and immunoblotting were performed as previously described (23). The binding of primary antibodies were detected by horseradish peroxidase-coupled secondary antibodies (Jackson ImmunoResearch) followed by enhanced chemiluminescence (ECL) (Millipore). The images of non-saturated bands were captured using a luminescent image analyzer (LAS-4000 mini; Fujifilm). The antibodies used in this study are listed in supplementary materials.

[3] = system: GFP expressing adenovirus (Ad-GFP); test: Ad-GFP infection of HEK293A cells; format: cell-based; settings: for Ad-GFP infection: 0.2-2 μM
Excerpt: To test the effects of anti-virus infection of benzopyran-4-one derivative compounds, a green fluorescent protein (GFP) expressing adenovirus to visualize adenovirus infection was used. To obtain the reporter virus, the GFP cDNA is amplified from pEGFP-N1 (Clontech, Accession: U55762.1) through a polymerase chain reaction with primers 5′-CACCATGGTGAGCAAGGGC-3′ [SEQ ID NO: 5] and 5′-[…]-3′ [SEQ ID NO: 6], and then cloned into pENTR™/D-TOP vector (Invitrogen). The GFP cDNA was transferred to adenovirus vector pAd/CMV/V5-DEST™ through an in vitro recombination method using LR Clonase® II after the sequence was confirmed. We selected the ampicillin- and […] clones to obtain the pAd-GFP. The pAd-GFP plasmid is then transfected into E1a and E1b expressing HEK293A cells to produce a crude GFP expression adenoviral stock (Ad-GFP). The adenovirus was amplified by infecting HEK293A cells. The adenoviral stock was titered and later used to infect the cells for the analysis.
(§1) To observe the anti-virus effect of the benzopyran-4-one derivative compounds, Ad-GFP and Lenti-GFP at a low MOI of 0.5 were then applied to infect the HEK293A cells and HEK293T cells, respectively. In the prevention group, cells were treated by compounds of Compound I-1 at 0.2, 1, and 2 μM or Compound II-1 at 0.1, 0.5, 1 μM for 30 minutes before Ad-GFP and Lenti-GFP infection. In the treatment group, cells were treated by compounds of Compound I-1 at 0.2, 1, and 2 μM or Compound II-1 at 0.1, 0.5, and 1 μM for 2 hours after Ad-GFP and Lenti-GFP infection. After a total of 6 hours of compounds and virus treatments, cells were washed with Hank's buffered salt solution and a flash culture media was replaced.
(§2) 24 hours after virus infection, the effect of the benzopyran-4-one derivative compounds on the antivirus infection was recorded by observing the GFP positive cells under an inverted fluorescence microscope. The mean fluorescence intensity by flow cytometry in each plate of cells was analyzed for quantification.

[4] = system: GFP-expressing retrovirus (Lenti-GFP); test: Lenti-GFP infection of HEK293T cells; format: cell-based, lentivirus
Protocol: In addition to the test of the benzopyran-4-one derivative compounds on the DNA virus infection, they were tested on the retrovirus using a GFP-expressing retrovirus to visualize the […] infection. […]. Afterward, the lentiviral stock (Lenti-GFP) was titered and used to infect the cells for analysis.
as §1, §2

[5] = system: Ad-GFP virus replication; test: Ad-GFP virus replication (supernatant re-infection of HEK293A cells); format: cell-based, adenovirus
Protocol: Ideally, the Ad-GFP virus is replicated within HEK293A cells. To test the effect of benzopyran-4-one derivative compounds on Ad-GFP virus replication, the same virus infection and compound treatment are performed as shown in FIG. 26. At the end of a 24-hour experiment, we collected the Ad-GFP virus from each well of Ad-GFP infected HEK293A using two freeze-thaw cycles and then collected the supernatants. An equal amount of supernatants from each well were then infected with the HEK293A cells, which were newly-prepared 1 day before infection in a 96-well plate at a density of 5×10^4 per well. Finally, the GFP cell images were obtained using the inverted fluorescence microscope and quantified by analyzing the MFI using flow cytometry for each well of cells.

[6] = system: tumor xenografts; settings: previous studies; cited from earlier work
[7] = post-treatment 2 hours after infection, 0.1-1 μM
[8] = pre-treatment 30 minutes before infection, 0.1-1 μM, MOI 0.5, 24 hours
[9] = pre-treatment, 0.2-2 μM Compound I-1 or 0.1-1 μM Compound II-1
[10] = post-treatment 2 hours after infection, re-infection
[11] = pre-treatment, 24 hours after re-infection

O=C1C=CC(O)(c2cc(=O)c3c(ccc4ccccc43)o2)C=C1 [Compound II-1, 3-(1-hydroxy-4-oxo-cyclohexa-2,5-dienyl)-1H-benzo[f]chromen-1-one]
Dose lower than that of Protoapigenone (I-1) for similar HRR effects [1]: 10 fold
GFP cell (%) ([1]; 0.2 μM): 0.703 ± 0.0304%
GFP cell (%) ([1]; 0.4 μM): 0.17%
Potency in inhibiting Chk1 phosphorylation, comparison ([2]; FIGS. 6(a), 6(b)): more potent than Protoapigenone (I-1)
MFI of GFP protein [3, 7]: decreased
Number of GFP cells [3, 7]: decreased
Mean fluorescence intensity (MFI) of GFP protein [3, 8]: decreased
Number of GFP cells [3, 8]: decreased
inhibition at 1 µM ([3]; unidentified adenovirus, HEK293-A, read-out: Virus inhibition effect): 50 to 99%
MFI of GFP protein [4, 7]: significantly decreased
MFI of GFP protein [4, 9]: significantly decreased
MFI of GFP protein [5, 10]: significant decreased
Number of GFP cells [5, 10]: significant decreased
MFI of GFP protein [5, 11]: significantly decreased
Number of GFP cells [5, 11]: significantly decreased
Size of tumor xenografts [6]: reduce the size of tumor xenografts
Toxic effects on the recipient [6]: without exerting toxic effects on the recipient

O=C1C=CC(O)(c2cc(=O)c3c(O)cc(O)cc3o2)C=C1 [Compound I-1, Protoapigenone]
GFP cell (%) ([1]; 2.0 μM): 0.807 ± 0.0403%
GFP cell (%) ([1]; 4.0 μM): 0.213 ± 0.0105%
Repair of chromosomal breaks by HRR, in words ([1]; low concentrations): dose-dependently inhibited
Reversal of inhibition of Chk1 phosphorylation by okadaic acid or MG132 pretreatment ([2]; 50 μM OA or 20 μM MG132, 10 J/m^2 UV 1 h): could not reverse
Chk1 phosphorylation ([2]; A594 cells, 0.1 mM H2O2 for 2 h): inhibit
Reversal of Chk1 phosphorylation inhibition by overexpression of ATR mediators ([2]; HEK293T cells overexpressing ATRIP, TopBP1, claspin or ATR, 10 J/m^2 UV, 1 h): overexpression of ATRIP or TopBP1 did not reverse the inhibitory effect of Protoapigenone (I-1) on Chk1 phosphorylation, whereas overexpression of claspin or ATR did
Ad-GFP infection ([3]; post-treatment): did not inhibit the Ad-GFP infection
Ad-GFP infection ([3]; pre-treatment): did not prevent the Ad-GFP infection
MFI of GFP protein ([4]; post-treatment, 2 μM): showed an inhibition effect
MFI of GFP protein [4, 9]: significantly decreased
MFI of GFP protein [5, 10]: significant decreased
Number of GFP cells [5, 10]: significant decreased
MFI of GFP protein [5, 11]: significantly decreased
Number of GFP cells [5, 11]: significantly decreased
Size of tumor xenografts [6]: reduce the size of tumor xenografts
Toxic effects on the recipient [6]: without exerting toxic effects on the recipient
